We go through six compounds from US20120101106A1, “Tetrahydronapthyridine Orexin Receptor Antagonists” (priority 2009, published 2012).

The structures appear in SMILES notation.

In this assay the target is T1, OX2R (Homo sapiens, UniProt O43614).
T1 construct: expressed in transfected cells; host or cells: CHO cells (membranes)
T1 sequence (O43614 1-444): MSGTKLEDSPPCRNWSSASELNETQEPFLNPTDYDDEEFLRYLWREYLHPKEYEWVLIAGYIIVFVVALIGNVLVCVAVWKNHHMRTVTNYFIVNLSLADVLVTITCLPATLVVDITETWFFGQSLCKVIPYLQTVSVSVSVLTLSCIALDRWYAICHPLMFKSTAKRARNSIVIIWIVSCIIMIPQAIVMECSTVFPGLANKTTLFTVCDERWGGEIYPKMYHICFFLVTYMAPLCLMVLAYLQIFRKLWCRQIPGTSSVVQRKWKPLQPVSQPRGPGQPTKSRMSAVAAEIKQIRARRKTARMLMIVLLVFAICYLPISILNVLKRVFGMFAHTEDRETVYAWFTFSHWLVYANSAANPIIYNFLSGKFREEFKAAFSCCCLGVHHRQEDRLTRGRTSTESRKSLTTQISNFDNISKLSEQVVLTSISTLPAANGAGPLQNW
In words: radioligand binding assay, membranes from CHO cells expressing the OX2 receptor. The settings on record: CHO cell membranes. How it is done:
The utility of the compounds in accordance with the present invention as orexin receptor OX1R and/or OX2R antagonists may be readily determined without undue experimentation by methodology well known in the art, including the “FLIPR Ca^2+ Flux Assay” (Okumura et al., Biochem. Biophys. Res. Comm. 280:976-981, 2001). In a typical experiment the OX1 and OX2 receptor antagonistic activity of the compounds of the present invention was determined in accordance with the following experimental method. For intracellular calcium measurements, Chinese hamster ovary (CHO) cells expressing the rat orexin-1 receptor or the human orexin-2 receptor, are grown in Iscove's modified DMEM containing 2 mM L-glutamine, […], 1% hypoxanthine-thymidine supplement, 100 U/ml penicillin, 100 ug/ml streptomycin and 10% heat-inactivated fetal calf serum (FCS). The cells are seeded at 20,000 cells/well into Becton-Dickinson black 384-well clear bottom sterile plates coated with poly-D-lysine. All reagents were from GIBCO-Invitrogen Corp. The seeded plates are incubated overnight at 37° C. and 5% CO2. Ala-6,12 human orexin-A as the agonist is prepared as a 1 mM stock solution in 1% bovine serum albumin (BSA) and diluted in assay buffer (HBSS containing 20 mM HEPES, 0.1% BSA and 2.5 mM probenecid, pH7.4) for use in the assay at a final concentration of 70 pM. Test compounds are prepared as 10 mM stock solution in DMSO, then diluted in 384-well plates, first in DMSO, then assay buffer. On the day of the assay, cells are washed 3 times with 100 ul assay buffer and then incubated for 60 min (37° C., 5% CO2) in 60 ul assay buffer containing 1 uM Fluo-4AM ester, 0.02% pluronic acid, and 1% BSA. The dye loading solution is then aspirated and cells are washed 3 times with 100 ul assay buffer. 30 ul of that same buffer is left in each well. Within the Fluorescent Imaging Plate Reader (FLIPR, Molecular Devices), test compounds are added to the plate in a volume of 25 ul, incubated for 5 min and finally 25 ul of agonist is added. Fluorescence is measured for each well at 1 second intervals for 5 minutes and the height of each fluorescence peak is compared to the height of the fluorescence peak induced by 70 pM Ala-6,12 orexin-A with buffer in place of antagonist. For each antagonist, IC50 value (the concentration of compound needed to inhibit 50% of the agonist response) is determined. Alternatively, compound potency can be assessed by a radioligand binding assay (described in Bergman et. al. Bioorg. Med. Chem. Lett. 2008, 18, 1425-1430) in which the inhibition constant (Ki) is determined in membranes prepared from CHO cells expressing either the OX1 or OX2 receptor. The intrinsic orexin receptor antagonist activity of a compound which may be used in the present invention may be determined by these assays.

As usually defined, the Ki is the equilibrium dissociation constant of an inhibitor or competing ligand from its target. `CNC(=O)[C@@H](c1ccccc1)N1CCc2cc(OC)c(OC)nc2[C@@H]1CCc1ccc(C(F)(F)F)cc1` [Compound 1-10, (2R)-2-[(8S)-2,3-dimethoxy-8-{2-[4-(trifluoromethyl)phenyl]ethyl}-5,8-dihydro-1,7-naphthyridin-7(6H)-yl]-N-methyl-2-phenylethanamide] returned a Ki of 0.17 nM.
Under `CNC(=O)[C@@H](c1ccccc1)N1CCc2nc(OC)c(OC)cc2[C@@H]1CCc1ccc(F)cc1F` [Compound 1-8, (2R)-2-[(5S)-5-[2-(2,4-difluoro-phenyl)ethyl]-2,3-dimethoxy-7,8-dihydro-1,6-naphthyridin-6(5H)-yl]-N-methyl-2-phenylethanamide] stands 1 nM.
Under `CNC(=O)[C@@H](c1ccccc1)N1CCc2nc(OC)c(OC)cc2[C@@H]1CCc1ccc(Cl)cc1` [Compound 1-7, (2R)-2-[(5S)-5-[2-(4-chlorophenyl)-ethyl]-2,3-dimethoxy-7,8-dihydro-1,6-naphthyridin-6(5H)-yl]-N-methyl-2-phenylethanamide] stands 0.26 nM.
The result for `CNC(=O)[C@@H](c1ccccc1)N1CCc2nc(OC)c(OC)cc2[C@@H]1CCc1ccc(C(F)(F)F)cc1` [Compound 1-6, (2R)-2-[(5S)-2,3-dimethoxy-5-{-2-[4-(trifluoromethyl)phenyl]ethyl}-7,8-dihydro-1,6-naphthyridin-6(5H)-yl]-N-methyl-2-phenylethanamide] reads 0.19 nM; that for `CNC(=O)[C@@H](c1ccccc1)N1CCc2nc(OC)c(OC)cc2[C@@H]1CCc1ccc(C)cc1` [Compound 1-9, (2R)-2-[(5S)-2,3-dimethoxy-5-[2-(4-methylphenyl)ethyl]-7,8-dihydro-1,6-naphthyridin-6(5H)-yl]-N-methyl-2-phenylethanamide], 0.18 nM; that for `CNC(=O)[C@@H](c1ccccc1)N1CCc2nc(OC)c(OC)nc2[C@@H]1CCc1ccc(C(F)(F)F)cc1` [Compound 1-11, (2R)-2-[(5S)-2,3-dimethoxy-5-{2-[4-(trifluoromethyl)phenyl]ethyl}-7,8-dihydropyrido[3,4-b]pyrazin-6(5H)-yl]-N-methyl-2-phenylethanamide], 0.44 nM.
